In US20210386367A1, “DEVICES AND SYSTEMS FOR GASTROINTESTINAL MICROBIOME DETECTION AND MANIPULATION” (Progenity, Inc., priority 2018, published 2021):
Values after ≈ are worked out from the molar mass of the structure shown. Values joined by “and” are separate entries in the source; they are usually repeats but may differ in a detail not shown here. Equal entries are not always repeated. Where two headings read alike, the source gives them in different places.

Legend:
Type in all cases: cell-based
[1] = test system: Enterococcus faecalis clinical isolates; test: MIC distribution against clinical isolates
[2] = test system: Staphylococcus aureus clinical isolates; test: MIC distribution against clinical isolates
[3] = test system: Streptococcus pyogenes clinical isolates; test: MIC distribution against clinical isolates
Description: (§1) As used herein, “minimum inhibitory concentration” or “MIC” refers to the lowest concentration of an antimicrobial agent, for example, an antimicrobial agent as described herein, required to inhibit the growth of an organism. […] “MIC90” represents the MIC value at which ≥90% of the strains within a test population are inhibited; the 90th percentile.
(§2) Many susceptibility testing methods are known in the art and can be used as described herein (see, e.g., Jorgensen and Ferraro (2009) Clinical Infectious Diseases 49:1749-1755; and Maurer et al. (2017) Infectious Disease Reports 9:6839; the entire contents of each of the foregoing are incorporated herein by reference). For example, antimicrobial susceptibility can be determined using conventional culture based methods such as the broth or agar dilution test. In these dilution tests, the bacterial isolate of interest is inoculated onto different media that include serial dilutions of an antimicrobial agent, and incubated under appropriate conditions (e.g., overnight at 37° C.) to allow for growth to occur. Following the incubation period, the media is examined to determine bacterial growth. The lowest concentration of antibiotic that prevents growth represents the minimal inhibitory concentration (MIC). Broth dilution tests can be miniaturized and mechanized allowing for reproducibility and high throughput.

[4] = test system: Viridans group Streptococci clinical isolates; test: MIC distribution against clinical isolates; settings: 15 Viridans group Streptococci isolates
Description: as §1, §2

Enterococcus faecalis = test: Broth microdilution MIC, 50 clinical isolates
How it was run: (§3)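 CLSI broth microdilution in cation-adjusted Mueller Hinton broth, with 3% lysed horse blood added for streptococci. Two-fold dilutions, inoculum ~5×10^5 CFU/mL, 35° C for 16-24 hr in ambient air (streptococci with CO2 planchets). MIC = lowest concentration inhibiting visible growth.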

Staphylococcus aureus = test: Broth microdilution MIC, 50 clinical isolates (28 MRSA)
How it was run: as §3

[5] = test system: Viridans group Streptococcus; test: Broth microdilution MIC, 15 clinical isolates; settings: for Mode: modal MIC
Method: Minimal inhibitory concentration (MIC) values were determined by broth microdilution or agar dilution in accordance with guidelines from the Clinical and Laboratory Standards Institute (CLSI; (1) “Methods for Dilution Antimicrobial Susceptibility Tests for Bacteria That Grow Aerobically; Approved Standard; 11th ed.” CLSI standard M07-A11, 2018; (2) “Performance Standards for Antimicrobial Susceptibility Testing; Twenty-Eighth Informational Supplement,” CLSI document M100-S28, 2018; and (3) “Methods for Antimicrobial Susceptibility Testing of Anaerobic Bacteria; Approved Standard—Eighth Edition,” CLSI document M11-A8, 2012).
Tested aerobically by broth microdilution: • Escherichia coli, n=50 • Klebsiella spp., n=50 • Pseudomonas aeruginosa, n=50 • Streptococcus spp., n=50 • Staphylococcus aureus, n=50 • Enterococcus faecalis, n=50 • Enterobacter aerogenes, n=50 • Proteus mirabilis, n=50
Broth microdilution testing of aerobic bacteria was conducted in cation-adjusted Mueller Hinton broth (MHBII). For testing streptococci, lysed horse blood (LHB) was added to MHBII broth at a final concentration of 3%. Where LHB was used, it was added after filtering.
Broth microdilution susceptibility testing in 96-well microplates was conducted in accordance with CLSI methods (1) and (2). Automated liquid handlers were used to conduct serial dilutions and liquid transfers, including the Multidrop 384 (Labsystems, Helsinki, Finland), Biomek 2000, and the Biomek FX (Beckman Coulter, Fullerton, Calif.). All wells in columns 2 through 12 of a standard 96-well microdilution plate (Costar 3795) were filled with 150 μL of the appropriate diluent. Then, 300 μL of the test agents were added to the wells of column 1 of the plates at 100× the highest final concentration to be tested. Serial two-fold dilutions were made across the rows through column 11 using the Biomek 2000. The wells of column 12 contained no drug and served as the growth control wells. This plate served as the “mother plate” from which MIC assay plates or “daughter plates” were made.
The daughter plates were loaded with 190 μL per well of the appropriate medium using the Multidrop 384. The daughter plates were created using the Biomek FX which transferred 2 μL of drug solution from each well of a mother plate to each corresponding well of the daughter plate in a single step. A standardized inoculum of each test organism was prepared per CLSI methods (1) to equal a 0.5 McFarland standard, followed by a dilution of 1:20 for aerobes and 1:10 for anaerobes. The plates were then inoculated with 10 μL of the diluted inoculum using the Biomek 2000 from low to high drug concentration, resulting in a final concentration of approximately 5×10^5 CFU/mL per well. An un-inoculated plate was incubated in parallel for each medium for the purpose of assessing solubility of the drug in the test media.
Inoculated plates were stacked 3 or 4 high, covered with a sterile lid on the top plate, placed into boxes with CO2 planchets (streptococci) or plastic bags (all other isolates). Plates were incubated at 35° C. for 16-24 hr in ambient air for aerobes or for 42-48 hr in the anaerobic environment of the Bactron II anaerobe chamber (Sheldon Manufacturing Co.; Cornelius, Oreg.). Following incubation, the microplates were removed from the incubator and viewed from the bottom using a plate viewer. The MIC values were read and recorded as the lowest concentration of drug that inhibited visible growth of the organism as per CLSI methods (1) and (2).

[6] = MIC 0.06 μg/mL, 50 E. faecalis isolates
[7] = MIC 0.5 μg/mL, 50 E. faecalis isolates
[8] = MIC 2 μg/mL, 50 E. faecalis isolates
[9] = MIC 4 μg/mL, 50 E. faecalis isolates
[10] = MIC 8 μg/mL, 50 E. faecalis isolates
[11] = MIC >8 μg/mL, 50 E. faecalis isolates
[12] = MIC 0.015 μg/mL, 50 S. aureus isolates
[13] = MIC 0.03 μg/mL, 50 S. aureus isolates
[14] = MIC 0.06 μg/mL, 50 S. aureus isolates
[15] = MIC 1 μg/mL, 50 S. aureus isolates
[16] = MIC 2 μg/mL, 50 S. aureus isolates
[17] = MIC 4 μg/mL, 50 S. aureus isolates
[18] = MIC 8 μg/mL, 50 S. aureus isolates
[19] = MIC >8 μg/mL, 50 S. aureus isolates
[20] = MIC 0.06 μg/mL, 19 S. pyogenes isolates
[21] = MIC 0.5 μg/mL, 19 S. pyogenes isolates
[22] = 15 Viridans group Streptococci clinical isolates
[23] = MIC 32 μg/mL, 50 S. aureus isolates
[24] = MIC >32 μg/mL, 50 E. faecalis isolates

COc1c(N2C[C@@H]3CCCN[C@@H]3C2)c(F)cc2c(=O)c(C(=O)O)cn(C3CC3)c12 [moxifloxacin]
Cumulative percentage of isolates inhibited at MIC [1, 6]: 2.0%
Number of test isolates at MIC [1, 6]: 1
Cumulative percentage of isolates inhibited at MIC [1, 7]: 52.0%
Number of test isolates at MIC [1, 7]: 4
Cumulative percentage of isolates inhibited at MIC [1, 8]: 54.0%
Number of test isolates at MIC [1, 8]: 1
Cumulative percentage of isolates inhibited at MIC [1, 9]: 56.0%
Number of test isolates at MIC [1, 9]: 1
Cumulative percentage of isolates inhibited at MIC [1, 10]: 66.0%
Number of test isolates at MIC [1, 10]: 5
Cumulative percentage of isolates inhibited at MIC [1, 11]: 100.0%
Number of test isolates at MIC [1, 11]: 17
Cumulative percentage of isolates inhibited at MIC [2, 12]: 14.0%
Number of test isolates at MIC [2, 12]: 7
Cumulative percentage of isolates inhibited at MIC [2, 13]: 30.0%
Number of test isolates at MIC [2, 13]: 8
Cumulative percentage of isolates inhibited at MIC [2, 14]: 48.0%
Number of test isolates at MIC [2, 14]: 9
Number of test isolates at MIC ([2]; MIC 0.5 μg/mL, 50 S. aureus isolates): 4
Cumulative percentage of isolates inhibited at MIC [2, 15]: 84.0%
Number of test isolates at MIC [2, 15]: 12
Cumulative percentage of isolates inhibited at MIC [2, 16]: 94.0%
Number of test isolates at MIC [2, 16]: 5
Cumulative percentage of isolates inhibited at MIC [2, 17]: 96.0%
Number of test isolates at MIC [2, 17]: 1
Cumulative percentage of isolates inhibited at MIC [2, 18]: 98.0%
Number of test isolates at MIC [2, 18]: 1
Cumulative percentage of isolates inhibited at MIC [2, 19]: 100.0%
Number of test isolates at MIC [2, 19]: 1
Number of test isolates at MIC ([2]; MIC […], 50 S. aureus isolates): 1
Cumulative percentage of isolates inhibited at MIC [3, 20]: 31.6%
Number of test isolates at MIC [3, 20]: 6
Cumulative percentage of isolates inhibited at MIC [3, 21]: 100.0%
Number of test isolates at MIC [3, 21]: 1
Cumulative percentage of isolates inhibited at MIC ([4]; MIC 0.06 μg/mL): 26.7%
Number of test isolates at MIC ([4]; MIC 0.06 μg/mL): 4
Cumulative percentage of isolates inhibited at MIC ([4]; MIC 2 μg/mL): 80.0%
Number of test isolates at MIC ([4]; MIC 2 μg/mL): 2
Cumulative percentage of isolates inhibited at MIC ([4]; MIC 4 μg/mL): 93.3%
Number of test isolates at MIC ([4]; MIC 4 μg/mL): 2
Cumulative percentage of isolates inhibited at MIC ([4]; MIC 8 μg/mL): 100.0%
Number of test isolates at MIC ([4]; MIC 8 μg/mL): 1
Mode (Enterococcus faecalis): >8 µg/mL
MIC50 (Enterococcus faecalis; Enterococcus faecalis, read-out: MIC50): 0.5 µg/mL (≈ 1.25 µM)
MIC90 (Enterococcus faecalis; Enterococcus faecalis, read-out: MIC90): > 8 µg/mL
Mode (Staphylococcus aureus): 1 µg/mL
MIC50 (Staphylococcus aureus; Staphylococcus aureus, read-out: MIC50): 0.12 µg/mL (≈ 0.299 µM)
MIC90 (Staphylococcus aureus; Staphylococcus aureus, read-out: MIC90): 2 µg/mL (≈ 4.98 µM)
MIC range [5, 22]: 0.06 to 8 µg/mL
MIC50 ([5]; Streptococcus, 15 Viridans group Streptococci clinical isolates, read-out: MIC50): 0.12 µg/mL (≈ 0.299 µM)
MIC90 ([5]; Streptococcus, 15 Viridans group Streptococci clinical isolates, read-out: MIC90): 4 µg/mL (≈ 9.96 µM)
Mode [5, 22]: 0.06 µg/mL

CO[C@H]1/C=C/O[C@@]2(C)Oc3c(C)c(O)c4c(O)c(c5c(nc6cc(C)ccn65)c4c3C2=O)NC(=O)/C(C)=C\C=C\[C@H](C)[C@H](O)[C@@H](C)[C@@H](O)[C@@H](C)[C@H](OC(C)=O)[C@@H]1C [rifaximin]
Number of test isolates at MIC [1, 7]: 5
Cumulative percentage of isolates inhibited at MIC ([2]; MIC 0.008 μg/mL, 50 S. aureus isolates): 8.0%
Cumulative percentage of isolates inhibited at MIC [2, 23]: 100.0%
Number of test isolates at MIC [2, 23]: 1
Cumulative percentage of isolates inhibited at MIC ([2]; listed as RFX): 70.0% and 78.0% and 94.0% and 98.0%
Number of test isolates at MIC [3, 20]: 6
Number of test isolates at MIC ([4]; MIC 0.06 μg/mL): 6
MIC50 (Enterococcus faecalis): 2 µg/mL (≈ 2.54 µM)
MIC90 (Enterococcus faecalis): 4 µg/mL (≈ 5.09 µM)
Mode (Enterococcus faecalis): 1 µg/mL
relative activity among drugs tested (Enterococcus faecalis): slightly more active than meropenem
MIC50 (Staphylococcus aureus): 0.015 µg/mL (≈ 0.0191 µM)
MIC90 (Staphylococcus aureus): 0.06 µg/mL (≈ 0.0763 µM)
MIC range (Staphylococcus aureus): 0.008 to 32 µg/mL
Mode (Staphylococcus aureus): 0.015 µg/mL
relative activity among drugs tested (Staphylococcus aureus): most active drug tested
MIC50 [5]: 0.06 µg/mL (≈ 0.0763 µM)
MIC90 [5]: 0.12 µg/mL (≈ 0.153 µM)
MIC50 [5, 22]: 0.06 µg/mL (≈ 0.0763 µM)
MIC90 [5, 22]: 0.12 µg/mL (≈ 0.153 µM)
MIC range [5, 22]: 0.015 to 0.1 µg/mL
Mode [5, 22]: 0.06 µg/mL

CN[C@H](CC(C)C)C(=O)N[C@H]1C(=O)N[C@@H](CC(N)=O)C(=O)N[C@H]2C(=O)N[C@H]3C(=O)N[C@H](C(=O)N[C@H](C(=O)O)c4cc(O)cc(O)c4-c4cc3ccc4O)[C@H](O)c3ccc(c(Cl)c3)Oc3cc2cc(c3O[C@@H]2O[C@H](CO)[C@@H](O)[C@H](O)[C@H]2O[C@H]2C[C@](C)(N)[C@H](O)[C@H](C)O2)Oc2ccc(cc2Cl)[C@H]1O [vancomycin, Vancomycin]
Cumulative percentage of isolates inhibited at MIC [1, 24]: 100.0%
Number of test isolates at MIC [1, 24]: 13
Cumulative percentage of isolates inhibited at MIC ([1]; listed as VAN): 48.0% and 64.0% and 72.0% and 74.0%
Cumulative percentage of isolates inhibited at MIC [2, 15]: 100.0%
Cumulative percentage of isolates inhibited at MIC ([3]; listed as VAN): 89.5% and 100.0%
Cumulative percentage of isolates inhibited at MIC ([4]; MIC 1 μg/mL): 100.0%
Number of test isolates at MIC ([4]; MIC 1 μg/mL): 1
% R (Enterococcus faecalis): 26%
% S (Enterococcus faecalis): 74% ^
Mode (Enterococcus faecalis): 0.5 µg/mL
MIC50 (Enterococcus faecalis; Enterococcus faecalis): 1 µg/mL (≈ 0.69 µM)
MIC90 (Enterococcus faecalis; Enterococcus faecalis): > 32 µg/mL
% R (Enterococcus faecalis; listed as VAN): 26% ^
% S (Staphylococcus aureus): 100%
MIC range (Staphylococcus aureus): 0.25 to 1 µg/mL
Mode (Staphylococcus aureus): 0.5 µg/mL
MIC50 (Staphylococcus aureus; Staphylococcus aureus): 0.5 µg/mL (≈ 0.345 µM)
MIC90 (Staphylococcus aureus; Staphylococcus aureus): 1 µg/mL (≈ 0.69 µM)
MIC range [5, 22]: 0.25 to 1 µg/mL
% S ([5]; 15 Viridans group Streptococci clinical isolates, MXF by FDA breakpoints): 100%
MIC50 ([5]; Streptococcus): 0.5 µg/mL (≈ 0.345 µM)
MIC90 ([5]; Streptococcus): 0.5 µg/mL (≈ 0.345 µM)
Mode [5, 22]: 0.5 µg/mL
